What was measured:
Experiment in all cases: Kinase profiling
Assay type in all cases: biochemical
AuroraC = molecular target: T1, AuroraC (Homo sapiens, UniProt Q9UQB9)
T1 construct: purchased ProQinase (Freiburg, Germany)
T1 sequence (Q9UQB9 1-309): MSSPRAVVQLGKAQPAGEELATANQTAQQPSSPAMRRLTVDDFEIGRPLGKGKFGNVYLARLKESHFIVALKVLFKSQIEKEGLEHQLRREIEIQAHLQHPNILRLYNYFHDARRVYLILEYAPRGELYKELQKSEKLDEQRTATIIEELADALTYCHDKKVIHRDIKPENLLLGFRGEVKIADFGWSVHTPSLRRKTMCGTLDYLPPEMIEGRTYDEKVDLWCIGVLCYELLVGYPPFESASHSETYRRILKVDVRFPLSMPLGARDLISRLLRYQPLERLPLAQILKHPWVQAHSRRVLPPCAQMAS
Experimental: (§1) The analysis was performed by ProQinase (Freiburg, Germany).

CAMK4 = molecular target: T2, CAMK4 (Homo sapiens, UniProt Q16566)
T2 construct: purchased ProQinase (Freiburg, Germany)
T2 sequence (Q16566 1-473): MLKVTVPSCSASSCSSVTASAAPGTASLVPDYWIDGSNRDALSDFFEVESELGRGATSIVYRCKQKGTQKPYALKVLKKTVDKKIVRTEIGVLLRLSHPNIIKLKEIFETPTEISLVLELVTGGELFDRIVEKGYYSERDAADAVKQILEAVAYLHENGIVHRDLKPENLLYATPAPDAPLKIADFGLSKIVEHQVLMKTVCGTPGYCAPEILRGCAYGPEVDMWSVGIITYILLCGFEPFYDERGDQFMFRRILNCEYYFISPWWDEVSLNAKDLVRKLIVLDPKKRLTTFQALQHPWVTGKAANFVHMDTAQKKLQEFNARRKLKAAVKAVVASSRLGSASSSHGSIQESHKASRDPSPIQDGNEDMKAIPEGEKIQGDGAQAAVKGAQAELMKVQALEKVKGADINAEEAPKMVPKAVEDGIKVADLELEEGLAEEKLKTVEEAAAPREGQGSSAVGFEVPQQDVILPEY
Experimental: as §1

CHK2 = molecular target: T3, CHK2 (Homo sapiens, UniProt O96017)
T3 construct: purchased ProQinase (Freiburg, Germany)
Experimental: as §1

CK2alpha1 = molecular target: T4, CK2alpha1 (Homo sapiens, UniProt P68400)
T4 construct: purchased ProQinase (Freiburg, Germany)
Experimental: as §1

DDR2 = molecular target: T5, DDR2 (Homo sapiens, UniProt Q16832)
T5 construct: purchased ProQinase (Freiburg, Germany)
T5 sequence (Q16832 22-855): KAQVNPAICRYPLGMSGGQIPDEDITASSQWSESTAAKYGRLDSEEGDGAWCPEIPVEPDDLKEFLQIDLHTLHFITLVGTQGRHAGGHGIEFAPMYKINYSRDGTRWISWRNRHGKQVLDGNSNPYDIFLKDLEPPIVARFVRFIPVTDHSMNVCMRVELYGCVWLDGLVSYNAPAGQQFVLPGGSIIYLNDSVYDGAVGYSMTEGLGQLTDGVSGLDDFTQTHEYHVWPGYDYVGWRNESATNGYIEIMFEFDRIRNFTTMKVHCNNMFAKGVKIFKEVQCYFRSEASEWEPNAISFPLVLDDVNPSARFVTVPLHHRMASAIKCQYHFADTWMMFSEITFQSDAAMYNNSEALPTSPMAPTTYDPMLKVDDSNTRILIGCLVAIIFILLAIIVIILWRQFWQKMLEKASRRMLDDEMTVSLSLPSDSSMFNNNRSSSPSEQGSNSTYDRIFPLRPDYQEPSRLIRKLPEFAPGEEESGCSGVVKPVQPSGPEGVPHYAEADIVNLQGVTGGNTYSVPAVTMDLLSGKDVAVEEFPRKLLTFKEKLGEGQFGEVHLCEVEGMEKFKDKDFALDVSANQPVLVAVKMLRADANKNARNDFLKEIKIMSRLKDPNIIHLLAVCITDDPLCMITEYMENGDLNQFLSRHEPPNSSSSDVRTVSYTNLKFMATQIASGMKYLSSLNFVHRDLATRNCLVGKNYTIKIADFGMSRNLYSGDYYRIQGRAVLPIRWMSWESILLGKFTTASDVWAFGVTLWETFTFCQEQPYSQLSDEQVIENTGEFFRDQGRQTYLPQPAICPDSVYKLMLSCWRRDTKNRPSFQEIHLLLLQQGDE
Experimental: as §1

FES = molecular target: T6, FES (Homo sapiens, UniProt P07332)
T6 construct: purchased ProQinase (Freiburg, Germany)
Experimental: as §1

INSR = molecular target: T7, INSR (Homo sapiens, UniProt P06213)
T7 construct: purchased ProQinase (Freiburg, Germany)
Experimental: as §1

LYN = molecular target: T8, LYN (Homo sapiens, UniProt P07948)
T8 construct: purchased ProQinase (Freiburg, Germany)
Experimental: as §1

MKNK2 = molecular target: T9, MKNK2 (Homo sapiens, UniProt Q9HBH9)
T9 construct: purchased ProQinase (Freiburg, Germany)
Experimental: as §1

MST2 = molecular target: T10, MST2 (Homo sapiens, UniProt Q13188)
T10 construct: purchased ProQinase (Freiburg, Germany)
T10 sequence (Q13188 1-491): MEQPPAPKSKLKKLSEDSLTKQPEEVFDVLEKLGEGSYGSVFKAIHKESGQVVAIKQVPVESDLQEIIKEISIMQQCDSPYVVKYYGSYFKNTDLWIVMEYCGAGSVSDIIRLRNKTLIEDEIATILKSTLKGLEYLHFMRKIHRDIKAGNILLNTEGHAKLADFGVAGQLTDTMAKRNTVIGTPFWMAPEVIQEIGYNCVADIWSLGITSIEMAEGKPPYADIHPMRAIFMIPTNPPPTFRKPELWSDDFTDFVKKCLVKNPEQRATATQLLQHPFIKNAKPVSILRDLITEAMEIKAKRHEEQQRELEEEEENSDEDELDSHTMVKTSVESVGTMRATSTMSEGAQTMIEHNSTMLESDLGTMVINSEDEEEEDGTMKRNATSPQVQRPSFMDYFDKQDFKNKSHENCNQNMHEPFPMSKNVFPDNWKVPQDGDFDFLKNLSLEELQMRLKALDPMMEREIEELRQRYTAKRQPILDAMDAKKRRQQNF
Experimental: as §1

SIK3 = molecular target: T11, SIK3 (Homo sapiens, UniProt Q9Y2K2)
T11 construct: purchased ProQinase (Freiburg, Germany)
Experimental: as §1

SRMS = molecular target: T12, SRMS (Homo sapiens, UniProt Q9H3Y6)
T12 construct: purchased ProQinase (Freiburg, Germany)
Experimental: as §1

TGFBR2 = molecular target: T13, TGFBR2 (Homo sapiens, UniProt P37173)
T13 construct: purchased ProQinase (Freiburg, Germany)
Experimental: as §1

T7 sequence (P06213 28-1382): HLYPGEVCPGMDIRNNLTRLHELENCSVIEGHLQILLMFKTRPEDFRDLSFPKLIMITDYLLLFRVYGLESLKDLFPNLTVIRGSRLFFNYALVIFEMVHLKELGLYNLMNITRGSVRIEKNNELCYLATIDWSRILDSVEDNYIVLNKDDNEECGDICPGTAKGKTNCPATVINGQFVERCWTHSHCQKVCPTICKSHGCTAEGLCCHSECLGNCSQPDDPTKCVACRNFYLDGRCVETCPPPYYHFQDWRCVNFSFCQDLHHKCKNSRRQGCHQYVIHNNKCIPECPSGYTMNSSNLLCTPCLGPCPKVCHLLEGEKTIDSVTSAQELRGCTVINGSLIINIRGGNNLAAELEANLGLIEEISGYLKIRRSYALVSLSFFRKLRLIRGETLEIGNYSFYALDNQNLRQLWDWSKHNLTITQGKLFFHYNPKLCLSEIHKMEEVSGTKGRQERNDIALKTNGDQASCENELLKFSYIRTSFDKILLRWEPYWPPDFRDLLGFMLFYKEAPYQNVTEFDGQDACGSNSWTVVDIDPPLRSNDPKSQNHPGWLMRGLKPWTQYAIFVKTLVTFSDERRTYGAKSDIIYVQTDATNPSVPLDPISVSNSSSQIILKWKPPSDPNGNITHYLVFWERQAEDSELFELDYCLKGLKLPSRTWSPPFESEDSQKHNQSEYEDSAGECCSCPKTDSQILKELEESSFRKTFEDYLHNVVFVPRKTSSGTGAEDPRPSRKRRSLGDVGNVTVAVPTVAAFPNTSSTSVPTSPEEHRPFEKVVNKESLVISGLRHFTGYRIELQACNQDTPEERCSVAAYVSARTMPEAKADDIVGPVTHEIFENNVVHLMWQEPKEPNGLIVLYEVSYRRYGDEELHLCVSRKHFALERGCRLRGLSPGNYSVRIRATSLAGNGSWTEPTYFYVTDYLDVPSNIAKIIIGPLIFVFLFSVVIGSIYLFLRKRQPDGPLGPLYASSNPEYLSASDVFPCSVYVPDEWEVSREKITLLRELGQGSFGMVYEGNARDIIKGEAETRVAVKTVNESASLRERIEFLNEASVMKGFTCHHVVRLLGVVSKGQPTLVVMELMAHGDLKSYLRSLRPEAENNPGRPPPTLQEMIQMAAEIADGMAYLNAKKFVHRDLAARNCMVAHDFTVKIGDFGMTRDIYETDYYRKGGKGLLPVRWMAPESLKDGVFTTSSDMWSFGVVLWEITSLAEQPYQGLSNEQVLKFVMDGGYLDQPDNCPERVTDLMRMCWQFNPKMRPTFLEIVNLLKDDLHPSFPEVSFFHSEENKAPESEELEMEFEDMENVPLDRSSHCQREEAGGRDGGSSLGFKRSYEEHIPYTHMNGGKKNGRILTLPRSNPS
T4 sequence (P68400 whole entry): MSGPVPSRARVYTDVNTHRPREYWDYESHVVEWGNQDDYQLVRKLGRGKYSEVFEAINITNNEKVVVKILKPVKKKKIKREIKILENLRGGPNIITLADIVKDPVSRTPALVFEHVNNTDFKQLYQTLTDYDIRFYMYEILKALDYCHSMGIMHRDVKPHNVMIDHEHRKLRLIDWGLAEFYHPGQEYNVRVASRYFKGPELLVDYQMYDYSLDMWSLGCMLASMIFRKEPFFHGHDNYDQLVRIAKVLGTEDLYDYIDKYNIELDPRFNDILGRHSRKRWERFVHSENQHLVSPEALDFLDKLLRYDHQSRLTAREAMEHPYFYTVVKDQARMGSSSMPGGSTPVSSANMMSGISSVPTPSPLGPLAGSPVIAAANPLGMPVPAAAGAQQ
T3 sequence (O96017 whole entry): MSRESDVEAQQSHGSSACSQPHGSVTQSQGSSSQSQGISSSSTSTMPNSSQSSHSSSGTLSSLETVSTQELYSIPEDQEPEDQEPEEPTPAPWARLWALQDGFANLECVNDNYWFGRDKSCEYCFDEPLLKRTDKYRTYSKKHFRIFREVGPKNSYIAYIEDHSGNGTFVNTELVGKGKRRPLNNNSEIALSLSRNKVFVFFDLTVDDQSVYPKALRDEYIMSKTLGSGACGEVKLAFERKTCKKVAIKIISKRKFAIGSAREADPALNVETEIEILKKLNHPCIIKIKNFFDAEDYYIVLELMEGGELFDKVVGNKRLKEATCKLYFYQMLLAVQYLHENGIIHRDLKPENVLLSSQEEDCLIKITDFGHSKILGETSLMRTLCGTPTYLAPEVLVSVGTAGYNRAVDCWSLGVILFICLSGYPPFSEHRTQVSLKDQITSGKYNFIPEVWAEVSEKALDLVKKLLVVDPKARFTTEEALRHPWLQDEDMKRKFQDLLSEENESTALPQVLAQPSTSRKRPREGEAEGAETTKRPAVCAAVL
T12 sequence (Q9H3Y6 whole entry): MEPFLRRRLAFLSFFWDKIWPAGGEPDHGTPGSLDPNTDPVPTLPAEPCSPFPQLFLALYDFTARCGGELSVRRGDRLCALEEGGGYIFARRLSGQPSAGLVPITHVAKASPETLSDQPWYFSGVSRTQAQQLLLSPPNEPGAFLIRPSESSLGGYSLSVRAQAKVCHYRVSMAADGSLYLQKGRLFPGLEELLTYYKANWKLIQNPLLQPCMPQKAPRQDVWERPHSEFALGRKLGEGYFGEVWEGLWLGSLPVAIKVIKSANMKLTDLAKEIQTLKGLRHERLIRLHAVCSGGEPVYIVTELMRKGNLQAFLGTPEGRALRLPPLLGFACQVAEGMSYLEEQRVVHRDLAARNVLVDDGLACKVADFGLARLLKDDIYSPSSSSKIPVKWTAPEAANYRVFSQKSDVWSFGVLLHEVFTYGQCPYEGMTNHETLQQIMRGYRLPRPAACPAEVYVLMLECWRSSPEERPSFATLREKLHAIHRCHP
T13 sequence (P37173 23-567): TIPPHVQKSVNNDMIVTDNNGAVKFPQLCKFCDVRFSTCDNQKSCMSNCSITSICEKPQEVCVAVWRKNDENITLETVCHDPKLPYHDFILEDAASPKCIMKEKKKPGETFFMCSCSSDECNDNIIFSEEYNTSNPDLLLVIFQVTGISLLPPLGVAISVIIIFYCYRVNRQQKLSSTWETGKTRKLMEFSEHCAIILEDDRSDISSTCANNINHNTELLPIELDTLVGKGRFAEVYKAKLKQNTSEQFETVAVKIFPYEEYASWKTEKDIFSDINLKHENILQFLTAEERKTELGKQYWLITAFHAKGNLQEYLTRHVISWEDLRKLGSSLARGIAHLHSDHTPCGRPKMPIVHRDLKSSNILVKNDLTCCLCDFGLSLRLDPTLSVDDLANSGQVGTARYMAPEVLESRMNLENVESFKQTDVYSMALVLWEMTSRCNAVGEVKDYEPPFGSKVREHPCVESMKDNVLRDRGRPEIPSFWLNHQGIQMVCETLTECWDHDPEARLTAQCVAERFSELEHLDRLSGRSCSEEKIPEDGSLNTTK
T11 sequence (Q9Y2K2 whole entry): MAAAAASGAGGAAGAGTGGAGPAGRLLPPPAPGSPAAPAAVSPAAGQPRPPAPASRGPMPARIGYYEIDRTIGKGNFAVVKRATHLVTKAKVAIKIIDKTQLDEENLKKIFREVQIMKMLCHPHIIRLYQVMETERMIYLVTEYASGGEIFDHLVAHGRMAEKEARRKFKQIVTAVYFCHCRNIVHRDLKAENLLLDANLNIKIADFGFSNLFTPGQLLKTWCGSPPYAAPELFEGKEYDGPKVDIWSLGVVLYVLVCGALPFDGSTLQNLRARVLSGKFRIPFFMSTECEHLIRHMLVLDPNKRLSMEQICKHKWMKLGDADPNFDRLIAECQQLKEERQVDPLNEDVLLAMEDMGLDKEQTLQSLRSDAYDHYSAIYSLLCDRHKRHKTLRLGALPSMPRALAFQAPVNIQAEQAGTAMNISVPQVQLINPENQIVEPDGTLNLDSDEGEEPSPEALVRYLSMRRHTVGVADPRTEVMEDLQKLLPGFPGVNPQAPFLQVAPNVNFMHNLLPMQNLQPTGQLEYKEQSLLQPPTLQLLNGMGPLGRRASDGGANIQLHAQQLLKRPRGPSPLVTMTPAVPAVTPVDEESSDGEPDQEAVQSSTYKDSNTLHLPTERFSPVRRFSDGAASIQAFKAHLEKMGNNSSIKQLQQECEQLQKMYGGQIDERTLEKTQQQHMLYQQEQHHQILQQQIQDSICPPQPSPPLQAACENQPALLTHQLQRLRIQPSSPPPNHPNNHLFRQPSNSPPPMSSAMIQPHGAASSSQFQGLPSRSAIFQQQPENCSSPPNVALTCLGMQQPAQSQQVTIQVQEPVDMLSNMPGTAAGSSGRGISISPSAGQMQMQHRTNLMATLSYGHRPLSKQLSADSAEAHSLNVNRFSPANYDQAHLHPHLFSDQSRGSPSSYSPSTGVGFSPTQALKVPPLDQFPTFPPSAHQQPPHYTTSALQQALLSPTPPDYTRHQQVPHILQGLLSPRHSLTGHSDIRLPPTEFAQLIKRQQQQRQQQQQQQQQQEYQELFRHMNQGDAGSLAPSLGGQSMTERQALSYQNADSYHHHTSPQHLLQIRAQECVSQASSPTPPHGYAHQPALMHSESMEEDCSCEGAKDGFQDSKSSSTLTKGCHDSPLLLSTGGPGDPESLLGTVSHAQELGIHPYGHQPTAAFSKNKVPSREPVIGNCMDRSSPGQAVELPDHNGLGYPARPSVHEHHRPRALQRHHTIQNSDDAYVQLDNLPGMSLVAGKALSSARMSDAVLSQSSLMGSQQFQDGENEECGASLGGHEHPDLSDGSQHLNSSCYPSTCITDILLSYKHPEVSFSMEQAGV

Row | SMILES | Residual activity (AuroraC; 1.0E-05 M) | Residual activity (AuroraC; 1.0E-06 M) | Residual activity (CAMK4; 1.0E-05 M) | Residual activity (CAMK4; 1.0E-06 M) | Residual activity (CHK2; 1.0E-05 M) | Residual activity (CHK2; 1.0E-06 M) | Residual activity (CK2alpha1; 1.0E-05 M) | Residual activity (CK2alpha1; 1.0E-06 M) | Residual activity (DDR2; 1.0E-05 M) | Residual activity (DDR2; 1.0E-06 M) | Residual activity (FES; 1.0E-05 M) | Residual activity (FES; 1.0E-06 M) | Residual activity (INSR; 1.0E-05 M) | Residual activity (INSR; 1.0E-06 M) | Residual activity (LYN; 1.0E-05 M) | Residual activity (LYN; 1.0E-06 M) | Residual activity (MKNK2; 1.0E-05 M) | Residual activity (MKNK2; 1.0E-06 M) | Residual activity (MST2; 1.0E-05 M) | Residual activity (MST2; 1.0E-06 M) | also measured
1 | O=C(Cc1ccccc1)Nc1ccc(F)c(Nc2ccc3c(c2)CCCCC3=O)c1 [Compound 100] | 101 % of control | 110 % of control | 97 % of control | 102 % of control | 72 % of control | 92 % of control | 106 % of control | 102 % of control | 71 % of control | 94 % of control | 67 % of control | 81 % of control | 92 % of control | 95 % of control | 95 % of control | 96 % of control | 115 % of control | 112 % of control | 82 % of control | 94 % of control | Residual activity (SIK3; 1.0E-05 M): 87 % of control; Residual activity (SIK3; 1.0E-06 M): 95 % of control; Residual activity (SRMS; 1.0E-05 M): 93 % of control; Residual activity (SRMS; 1.0E-06 M): 102 % of control; Residual activity (TGFBR2; 1.0E-05 M): 74 % of control; Residual activity (TGFBR2; 1.0E-06 M): 79 % of control
2 | O=C(Nc1ccc(F)c(Nc2ccc3c(c2)CCCCC3=O)c1)c1cccc(F)c1 [Compound 109] | 101 % of control | 99 % of control | 89 % of control | 97 % of control | 74 % of control | 94 % of control | 98 % of control | 102 % of control | 64 % of control | 93 % of control | 90 % of control | 79 % of control | 84 % of control | 95 % of control | 88 % of control | 104 % of control | 107 % of control | 104 % of control | 75 % of control | 90 % of control | Residual activity (SIK3; 1.0E-05 M): 99 % of control; Residual activity (SIK3; 1.0E-06 M): 96 % of control; Residual activity (SRMS; 1.0E-05 M): 97 % of control; Residual activity (SRMS; 1.0E-06 M): 98 % of control; Residual activity (TGFBR2; 1.0E-05 M): 79 % of control; Residual activity (TGFBR2; 1.0E-06 M): 82 % of control

From paper PMC9030254, “Target Hopping from Protein Kinases to PXR: Identification of Small-Molecule Protein Kinase Inhibitors as Selective Modulators of Pregnane X Receptor from TüKIC Library” (Cells, 2022)
